Patent US11136370B2, “Compositions and methods for thrombin generation assay” (The Scripps Research Institute, priority 2016, dated 2021)
Entries after “also recorded” stand apart in the source; their conditions may differ.

Tests used:
FXa V17M mutant = target: T1, FXa V17M mutant (Homo sapiens, UniProt P00742, V236M); assay: FVIIIa generation by FXa V17M in stable complex with TF-iFVIIa-NAPc2; assay type: biochemical; settings: up to 5 nM rivaroxaban
T1 construct: TF-associated FVIIa has converted FX into FXa active protease

[1] = target: T2, ternary TF-FVIIa-FXa complex (Homo sapiens, UniProt P00742); assay: FV activation (FVa generation, WB) by TF-FVIIa with FX; assay type: biochemical; settings: clinically relevant concentrations
T2 construct: purchased Haematologic Technologies (FX); Siemens Healthcare Diagnostics (rTF); FVIIa made in house
Description: (A) Phospholipid-free assay of FX (1 μM) to FXa conversion by the complex of 2 μM soluble rTF with 10 nM FVIIa WT, T99Y or E154A. (B) FXa generation by 50 pM phospholipid-reconstituted rTF with 200 pM FVIIa WT, T99Y or E154A added to 135 nM FX, 0.7 nM FVIII, 3 nM FV and 200 nM lepirudin (2 min, n=2-3; 4 min, n=4-5; 6 min, n=6-9). (C) WB (representing 2) of FVIII activation in reactions of 50 pM TF, 200 pM FVIIa WT or mutants, 0.7 nM FVIII, 3 nM FV and 200 nM lepirudin without/with 135 nM FX, incubated for 120 s at 37° C. […] (E) FXa generation measured in reactions as in (D) without TFPIα and in the presence of 10 nM FIXa (left, incubation 180 s; n=5-6 except=2 for E154A) or 90 nM FIX (right, incubation for 360 s; n=5-6). […] Differences were evaluated by the ANOVA/Tukey test; results at 4 and 6 min in (B) and in reactions with FIX in (E, right) were analyzed after transformation as y=log 10 y (**P<0.01, ***P<0.001).
Time-course (mean±SEM) of 1 μM FX activation by 2 μM phospholipid-free soluble recombinant TF with 10 nM FVIIa WT (n=4-7), T99Y (n=2-3) or E154A mutants (n=3-4); incubation at 37° C. […] FVIIIa activity (25th-75th percentile bars, min to max whiskers, line at the median) generated as in (B), but without TFPIα, measured as FXa produced by 10 nM FIXa (n=9 for FVIIa WT and T99Y; n=5 for E154A). **P<0.01, ***P<0.001) by ANOVA/Tukey tests. […]

thrombin generation (TG) = assay: TG in reactions with purified components (FVIIa, FIXa, rTF, FX, FV, prothrombin, TFPIα); assay type: biochemical, human; settings: therapeutic doses
Description: Thrombin was quantified with a fluorogenic substrate for calculation of % inhibition. […] Reactions were initiated by 100 pM FXa with 50 pM rTF as the phospholipid surface (top); or the preformed complex of 50 pM TF, 100 pM iFVIIa, 100 pM FXa, 5 nM NAPc2 (middle); or 50 pM TF/200 pM FVIIa/135 nM FX (bottom) in mixtures of 0.7 nM FVIII, 3 nM FV, 200 nM lepirudin, 10 nM TFPI, and 2.5 mM CaCl2 incubated for 120 s at 37° C. […] (n=3-4). […] Endogenous thrombin potential (ETP, right) was calculated from the area under the TG curve (n=2). Results in (E) and (F) are shown as 25th-75th percentile bars with min to max whiskers or min to max bars (when n≤3) with a line at the median. Differences were evaluated with the ANOVA/Tukey test (performed after log 10 transformation of the data shown in E); *P<0.05, ***P<0.001.
The synthetic reaction mixtures comprised 0.7 nM FVIII, 3 nM FV, 135 nM FX, 104 prothrombin in 50 mM Tris-buffered saline, pH 7.4, with 0.1% BSA. […] Reactions to prevent thrombin effects were carried out in the presence of 200 nM lepirudin or 4 μM DAPA. […] Generation of FXa, FIIa and thrombin were evaluated by measuring amidolytic activity toward the chromogenic substrate S-2765 (180 μM; N-α-benzyloxycarbonyl-D-arginyl-L-glycyl-L-arginine-p-nitroaniline; DiaPharma, West Chester, Ohio) and the fluorogenic substrate Z-Gly-Gly-Arg-AMC (360 μM) respectively.

immobilized rTF = assay: Blood perfusion over immobilized rTF, volume of platelet aggregates and fibrin; assay type: cell-based, human
Description: Glass coverslips treated with 0.2 mg/ml poly-L-lysine for 6 h at 37° C. were coated with rTF for 18-20 hours at 37° C. or 2.5 mg/ml acid-insoluble type I collagen for 2 hours at 22-25° C. Then they were rinsed with pH 7.4 buffered-saline, assembled in a rectangular flow chamber with a 125 μm-high silicon gasket and positioned on a confocal microscope stage for analysis. Venous blood for testing was collected into final 10.9 mM trisodium citrate using a plastic syringe for normal volunteers or Vacutainer tubes (Becton Dickinson, Buccinasco, Milan) for patients and controls. Before perfusion at a flow rate yielding an initial wall shear rate of 300 s^−1 maintained with a syringe pump (Harvard Apparatus, Holliston, Mass.), CaCl2 was added to obtain 1.29 mM Ca^2+. In the blood of patients—potentially hypercoagulable—and related controls, lepirudin (50 nM) was also added to neutralize thrombin possibly generated before testing. […] For experiments with WT and mutant FVIIa, cells from group O citrated blood, containing 50 μg/ml CTI and 10 U/ml (ADPase activity) apyrase, were washed free of plasma by sequential centrifugation steps at 1500 g for 7 min. After the first, plasma was replaced with an equal volume of calcium-free Tyrode buffer, pH 6.5, with 5 U/ml apyrase; then with buffer and 1.25 U/ml apyrase; and finally with human FVII deficient plasma (George King Bio-Medical, Overland Park, Kans.) up to the original blood volume. Cell count results in reconstituted and native blood were within 90%. Experiments in Milan (Italy) were performed with a Leica TCS SP5 microscope and HCX PL APO 63x/1.40 NA oil immersion objective (Leica Microsystems GmbH, Wetzlar, Germany); in La Jolla (California) with a Zeiss Axiovert 135M/LSM 410 and Plan-Apochromat 40x/1.40 NA oil immersion objective (Carl Zeiss AG, Oberkochen, Germany).
Platelets adhering and aggregating onto the surface were visualized by adding quinacrine-HCl (mepacrine; 10 μg/ml; Sigma-Aldrich) to blood. Deposited fibrin was visualized with Alexa Fluor 546-labeled (Invitrogen) mouse monoclonal IgG (50 μg/ml) specific for the B chain of mouse and human fibrin (HB-8545; ATCC). Blood was perfused for 3-5 min at 37° C. with a syringe pump (Harvard Apparatus Inc.) at a flow rate yielding an initial (in the unobstructed flow path) wall shear rate of 300 s^−1. This was followed by buffer (DMEM) for 2 minutes to facilitate fibrin quantification by confocal z section analysis using a Zeiss Axiovert 135M/LSM 410 microscope (Carl Zeiss) and Plan-Apochromat×63/1.40 NA oil immersion objective. Image analysis was performed with NIH ImageJ64. Deposited fibrin volume was measured from confocal sections collected at 4 preset positions in the flow chamber. Total volume of deposited platelets and fibrin was calculated from the sum of the respective area coverage per section multiplied by the z interval (2 μm). All studies involving human subjects were conducted following institutionally approved protocols.
TF-coated glass coverslips were perfused with venous blood at a wall shear rate of 300 s^−1. A Zeiss Axiovert 135M/LSM 410 and Plan-Apochromat 40x/1.40 NA oil immersion objective (Carl Zeiss AG, Oberkochen, Germany) was used to visualize platelets/leukocytes and fibrin stained with mepacrine and a specific anti-body, respectively. Image analysis to calculate volumes was performed as described herein.
Glass coverslips treated with 0.2 mg/ml poly-L-lysine for 6 h at 37° C. were coated with rTF for 18-20 hours at 37° C., rinsed with buffered-saline and assembled in a rectangular flow chamber with a 125 μm-high silicon gasket. Venous blood was collected into final 10.9 mM trisodium citrate using a plastic syringe. CaCl2 was added to obtain 1.29 mM Ca^2+ before perfusion at a wall shear rate of 300 s-1 maintained with a syringe pump (Harvard Apparatus, Holliston, Mass.). […]

T2 sequence (P00742 41-179 limits assumed): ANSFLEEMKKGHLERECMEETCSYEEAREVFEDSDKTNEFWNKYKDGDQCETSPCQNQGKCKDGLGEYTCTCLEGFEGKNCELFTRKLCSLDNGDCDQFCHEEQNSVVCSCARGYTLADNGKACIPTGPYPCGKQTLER
T2 sequence (P00742 235-488 limits assumed): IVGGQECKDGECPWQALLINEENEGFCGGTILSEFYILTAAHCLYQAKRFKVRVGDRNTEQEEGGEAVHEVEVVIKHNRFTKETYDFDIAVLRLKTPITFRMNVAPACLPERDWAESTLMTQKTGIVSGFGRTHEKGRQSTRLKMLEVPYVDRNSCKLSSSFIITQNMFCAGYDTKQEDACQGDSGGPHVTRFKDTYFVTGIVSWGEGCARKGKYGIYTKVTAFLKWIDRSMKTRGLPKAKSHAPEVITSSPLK
T1 sequence (P00742 41-179): as the sequence (P00742 41-179 limits assumed) above
T1 sequence (P00742 235-488 V236M): as the sequence (P00742 235-488 limits assumed) above, with V2M counted along it

## O=C(NC[C@H]1CN(c2ccc(N3CCOCC3=O)cc2)C(=O)O1)c1ccc(Cl)s1 [Rivaroxaban]
FXa V17M mutant
  effect on FVIIIa generation by FXa V17M: insensitive
[1]
  effect on FVa generation by the ternary TF-FVIIa-FXa complex: blocked
Thrombin generation (TG)
  effect on TG initiated by TF alone in reactions containing FIXa without FVIII: inhibited
Immobilized rTF; blood of treated patients, high density TF surface
  fibrin deposition: as low as in warfarin treated patients
Immobilized rTF; blood of treated patients, higher rTF coating concentration, 300 s^-1, 5 min
  volume of deposited fibrin: significantly greater; also recorded: fibrin formation in the normal range
Immobilized rTF; blood of treated patients, lower rTF coating concentration, 300 s^-1, 5 min
  volume of deposited fibrin vs untreated controls: markedly smaller
Immobilized rTF; blood of treated patients, rTF coating 20 and 40 pM
  volume of platelet aggregates vs controls: non significantly different from controls
Immobilized rTF; rivaroxaban added to normal blood in vitro at the concentration measured in treated patients
  fibrin volume: reduced fibrin volume partially
